Measured values: the NIST ThermoML archive (doi:10.1021/je800672r)
± gives the expanded uncertainty stated by the source.

Test: wn = mass fraction of the nth substance listed
Conditions: Liquid

## NCC(=O)[O-].[Na+] [sodium glycinate] + O
298.15 K, w1 = 0.01
  mass density: 1011.96 ± 2.3 kg/m3
298.15 K, w1 = 0.05
  mass density: 1015.92 ± 2.4 kg/m3
298.15 K, w1 = 0.1
  mass density: 1034.52 ± 2.9 kg/m3
298.15 K, w1 = 0.15
  mass density: 1055.6 ± 3.4 kg/m3
298.15 K, w1 = 0.2
  mass density: 1083.52 ± 4.1 kg/m3
298.15 K, w1 = 0.3
  mass density: 1130.4 ± 5.2 kg/m3
313.15 K, w1 = 0.01
  mass density: 1002 ± 2 kg/m3
313.15 K, w1 = 0.05
  mass density: 1010.56 ± 2.2 kg/m3
313.15 K, w1 = 0.1
  mass density: 1029.68 ± 2.7 kg/m3
313.15 K, w1 = 0.15
  mass density: 1048.32 ± 3.2 kg/m3
313.15 K, w1 = 0.2
  mass density: 1076.44 ± 3.9 kg/m3
313.15 K, w1 = 0.3
  mass density: 1118 ± 4.9 kg/m3
323.15 K, w1 = 0.05
  mass density: 1005.12 ± 2.1 kg/m3
323.15 K, w1 = 0.1
  mass density: 1022.56 ± 2.5 kg/m3
323.15 K, w1 = 0.15
  mass density: 1042.92 ± 3.1 kg/m3
323.15 K, w1 = 0.2
  mass density: 1071 ± 3.8 kg/m3
323.15 K, w1 = 0.3
  mass density: 1112.76 ± 4.8 kg/m3
333.15 K, w1 = 0.01
  mass density: 996.72 ± 2.1 kg/m3
333.15 K, w1 = 0.05
  mass density: 1000.12 ± 2 kg/m3
333.15 K, w1 = 0.1
  mass density: 1017.56 ± 2.4 kg/m3
333.15 K, w1 = 0.15
  mass density: 1036.72 ± 2.9 kg/m3
333.15 K, w1 = 0.2
  mass density: 1066.48 ± 3.6 kg/m3
333.15 K, w1 = 0.3
  mass density: 1107.48 ± 4.7 kg/m3
343.15 K, w1 = 0.01
  mass density: 990.16 ± 2.2 kg/m3
343.15 K, w1 = 0.05
  mass density: 993.24 ± 2.2 kg/m3
343.15 K, w1 = 0.1
  mass density: 1010.76 ± 2.3 kg/m3
343.15 K, w1 = 0.15
  mass density: 1030.08 ± 2.8 kg/m3
343.15 K, w1 = 0.2
  mass density: 1061.2 ± 3.5 kg/m3
343.15 K, w1 = 0.3
  mass density: 1101.44 ± 4.5 kg/m3
353.15 K, w1 = 0.01
  mass density: 985.36 ± 2.4 kg/m3
353.15 K, w1 = 0.05
  mass density: 987.2 ± 2.3 kg/m3
353.15 K, w1 = 0.1
  mass density: 1005.32 ± 2.1 kg/m3
353.15 K, w1 = 0.15
  mass density: 1023.64 ± 2.6 kg/m3
353.15 K, w1 = 0.2
  mass density: 1054.48 ± 3.4 kg/m3
353.15 K, w1 = 0.3
  mass density: 1094.52 ± 4.4 kg/m3
